Source: patent US11230533B2, “Crystalline salts and polymorphs of a P2X3 antagonist” (Afferent Pharmaceuticals, Inc., priority 2016, dated 2022)
≈ marks a conversion by molar mass, not a printed value. Read-outs that look alike come from different tables or passages of the source.

Assay: Approximate solubility by solvent addition
Type: physicochemical
Experimental: Solubilities are calculated based on the total solvent used to give a solution; actual solubilities may be greater because of the volume of the solvent portions used or a slow rate of dissolution. Values are rounded to the nearest whole number.
Solubilities are calculated based on the total solvent used to give a solution; actual solubilities may be greater because of the volume of the solvent portions used or a slow rate of dissolution. Values are rounded to the nearest whole number. […] If dissolution occurred as determined by the visual assessment after the addition of the first aliquot, the value is reported as “>”.

Compound `COc1cc(C(C)C)c(Oc2cnc(N)nc2N)cc1S(N)(=O)=O` [Compound A Free Base Form A, 5-(2,4-diamino-pyrimidin-5-yloxy)-4-isopropyl-2-methoxy-benzenesulfonamide] has a solubility (aqueous with cosolvent or surfactant or cyclodextrin, thermodynamic from solid, solvent acetone/water 50:50 (v/v), read-out: Solubility) of less than 1000 µg/mL, a solubility (organic solvent or mixture, thermodynamic from solid, solvent ACN/water 90:10 (v/v), read-out: Solubility) of 1000 µg/mL (≈ 2830 µM) and a solubility (organic solvent or mixture, thermodynamic from solid, solvent ACN, read-out: Solubility) of less than 2000 µg/mL. The solubility (organic solvent or mixture, thermodynamic from solid, solvent DMSO, read-out: Solubility) was 20000 µg/mL (≈ 56600 µM), the solubility (organic solvent or mixture, thermodynamic from solid, solvent EtOAc, read-out: Solubility) was less than 1000 µg/mL and the solubility (organic solvent or mixture, thermodynamic from solid, solvent EtOH, read-out: Solubility) was less than 1000 µg/mL. It also gave a solubility (organic solvent or mixture, thermodynamic from solid, solvent MeOH, read-out: Solubility) of 1000 µg/mL (≈ 2830 µM), a solubility (organic solvent or mixture, thermodynamic from solid, solvent TFE, read-out: Solubility) of 2000 µg/mL (≈ 5660 µM) and a solubility (organic solvent or mixture, thermodynamic from solid, solvent acetone, read-out: Solubility) of less than 1000 µg/mL. For the same compound, the solubility (solvent water, ambient temperature) was less than 1000 µg/mL and the solubility (thermodynamic from solid, solvent water, ambient temperature, read-out: Solubility) was less than 1000 µg/mL.
